Laboratory results reported in ChEMBL document CHEMBL1134079, “Synthesis and pharmacological evaluation of 2,5-cycloamino-5H-[1]benzopyrano[4,3-d]pyrimidines endowed with in vitro antiplatelet activity” (Bioorg Med Chem Lett, 2001).

Legend:
Type in all cases: functional
[1] = species on record: Cavia porcellus; assay: Evaluated for in vitro antiplatelet activity against guinea pig platelet rich plasma aggregated by […] (ADP)
[2] = species on record: Cavia porcellus; assay: Evaluated for in vitro antiplatelet activity against guinea pig platelet rich plasma aggregated by arachidonic acid (AA)
[3] = species on record: Cavia porcellus; assay: In vitro antiplatelet activity against guinea pig platelet rich plasma aggregated by collagen

Row | Compound | IC50 [1] | IC50 ([2]; read-out: IC50) | IC50 ([3]; read-out: IC50) | IC50 [2] | IC50 [3]
1 | Nc1ncc2c(n1)-c1ccccc1OC2N1CCCC1 (stereo not given) | 750 µM | 400 µM | – | – | –
2 | c1ccc2c(c1)OC(N1CCCCC1)c1cnc(N3CCOCC3)nc1-2 (stereo not given) | – | – | 200 µM | – | –
3 | c1ccc2c(c1)OC(N1CCOCC1)c1cnc(N3CCOCC3)nc1-2 (stereo not given) | – | 95 µM | 60 µM | – | –
4 | c1ccc2c(c1)OC(N1CCCC1)c1cnc(N3CCOCC3)nc1-2 (stereo not given) | 250 µM | 430 µM | 80 µM | – | –
5 | CC(=O)Oc1ccccc1C(=O)O [ASPIRIN] | – | – | – | 61 µM | 48 µM

Further molecules by falling IC50 ([2]; read-out: IC50), results first:

Row | IC50 [1] | IC50 ([2]; read-out: IC50) | IC50 ([3]; read-out: IC50) | IC50 [2] | IC50 [3] | Compound
6 | – | 90 µM | – | – | – | c1ccc2c(c1)OC(N1CCCCC1)c1cnc(N3CCCC3)nc1-2 (stereo not given)
7 | 180 µM | 85 µM | – | – | – | CSc1ncc2c(n1)-c1ccccc1OC2N1CCCC1 (stereo not given)
8 | 200 µM | 80 µM | 170 µM | – | – | c1ccc2c(c1)OC(N1CCCC1)c1cnc(N3CCCC3)nc1-2 (stereo not given)
9 | – | 75 µM | 50 µM | – | – | c1ccc2c(c1)OC(N1CCOCC1)c1cnc(N3CCCC3)nc1-2 (stereo not given)
10 | – | 25 µM | 60 µM | – | – | c1ccc2c(c1)OC(N1CCOCC1)c1cnc(N3CCCCC3)nc1-2 (stereo not given)
